Source: PubChem BioAssay AID1982 (Sanford-Burnham Center for Chemical Genomics, 2009)
The source made the active and inactive calls. How the calls were made is not given here.

How the values were obtained:
Assay in all cases: kinase panel binding selectivity, selectivity assay, biochemical, KINOMEscan (AID 1982)
[1] = test system: ACVR2B; settings: KINOMEscan 353-kinase binding panel, qPCR, at 10 µM, stronger effect = lower value
[2] = test system: STK35; settings: KINOMEscan 353-kinase binding panel, qPCR, at 10 µM, stronger effect = lower value
[3] = test system: MLK3; settings: KINOMEscan 353-kinase binding panel, qPCR, at 10 µM, stronger effect = lower value
[4] = target: Testis-specific serine/threonine-protein kinase 1 (Homo sapiens) (UniProt Q9BXA7); settings: KINOMEscan 353-kinase binding panel, qPCR; TSSK1; at 10 µM; stronger effect = lower value
Sequence of Testis-specific serine/threonine-protein kinase 1 (Homo sapiens) (Q9BXA7 whole entry, looked up): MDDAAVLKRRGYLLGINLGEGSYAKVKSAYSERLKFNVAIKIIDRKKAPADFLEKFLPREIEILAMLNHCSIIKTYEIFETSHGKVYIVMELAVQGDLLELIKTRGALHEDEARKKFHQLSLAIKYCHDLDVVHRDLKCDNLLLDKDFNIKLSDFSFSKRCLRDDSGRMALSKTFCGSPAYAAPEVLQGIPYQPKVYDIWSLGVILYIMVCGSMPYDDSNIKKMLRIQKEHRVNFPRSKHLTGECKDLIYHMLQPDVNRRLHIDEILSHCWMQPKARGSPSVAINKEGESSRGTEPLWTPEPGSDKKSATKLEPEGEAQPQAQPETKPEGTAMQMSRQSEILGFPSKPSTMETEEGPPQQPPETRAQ

[5] = target: Activated CDC42 kinase 1 (Homo sapiens) (UniProt Q07912); settings: KINOMEscan 353-kinase binding panel, qPCR; TNK2; at 10 µM; stronger effect = lower value
Sequence of Activated CDC42 kinase 1 (Homo sapiens) (Q07912 whole entry, looked up): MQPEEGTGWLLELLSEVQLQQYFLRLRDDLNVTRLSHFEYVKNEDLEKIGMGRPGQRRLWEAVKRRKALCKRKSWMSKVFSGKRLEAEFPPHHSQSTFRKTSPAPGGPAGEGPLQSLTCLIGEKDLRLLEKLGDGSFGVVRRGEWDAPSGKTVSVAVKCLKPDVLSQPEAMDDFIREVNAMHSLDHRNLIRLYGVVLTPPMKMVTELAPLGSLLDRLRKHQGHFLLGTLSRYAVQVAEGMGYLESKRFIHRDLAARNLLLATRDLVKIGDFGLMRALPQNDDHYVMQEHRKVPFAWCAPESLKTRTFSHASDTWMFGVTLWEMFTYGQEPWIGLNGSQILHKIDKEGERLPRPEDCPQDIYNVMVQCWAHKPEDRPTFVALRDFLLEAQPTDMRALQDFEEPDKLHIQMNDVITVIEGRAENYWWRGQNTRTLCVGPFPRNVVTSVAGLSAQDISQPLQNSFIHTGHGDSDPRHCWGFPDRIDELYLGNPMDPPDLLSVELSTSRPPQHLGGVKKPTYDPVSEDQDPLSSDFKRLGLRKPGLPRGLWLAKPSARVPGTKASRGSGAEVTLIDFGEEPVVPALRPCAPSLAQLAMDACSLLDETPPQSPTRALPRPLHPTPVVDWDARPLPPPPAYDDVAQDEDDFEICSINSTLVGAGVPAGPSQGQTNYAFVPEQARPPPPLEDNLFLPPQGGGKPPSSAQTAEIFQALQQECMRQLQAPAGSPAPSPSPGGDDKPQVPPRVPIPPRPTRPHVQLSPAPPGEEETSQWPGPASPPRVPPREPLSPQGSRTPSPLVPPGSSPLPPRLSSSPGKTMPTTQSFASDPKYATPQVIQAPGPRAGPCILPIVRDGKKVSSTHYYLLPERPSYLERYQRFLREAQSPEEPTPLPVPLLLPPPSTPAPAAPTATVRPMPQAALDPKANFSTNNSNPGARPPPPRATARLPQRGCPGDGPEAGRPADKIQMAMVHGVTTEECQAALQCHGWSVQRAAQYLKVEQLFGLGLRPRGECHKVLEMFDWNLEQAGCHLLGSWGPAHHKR

[6] = target: Ribosomal protein S6 kinase alpha-4 (Homo sapiens) (UniProt O75676); settings: KINOMEscan 353-kinase binding panel, qPCR, at 10 µM, stronger effect = lower value
Sequence of Ribosomal protein S6 kinase alpha-4 (Homo sapiens) (O75676 whole entry, looked up): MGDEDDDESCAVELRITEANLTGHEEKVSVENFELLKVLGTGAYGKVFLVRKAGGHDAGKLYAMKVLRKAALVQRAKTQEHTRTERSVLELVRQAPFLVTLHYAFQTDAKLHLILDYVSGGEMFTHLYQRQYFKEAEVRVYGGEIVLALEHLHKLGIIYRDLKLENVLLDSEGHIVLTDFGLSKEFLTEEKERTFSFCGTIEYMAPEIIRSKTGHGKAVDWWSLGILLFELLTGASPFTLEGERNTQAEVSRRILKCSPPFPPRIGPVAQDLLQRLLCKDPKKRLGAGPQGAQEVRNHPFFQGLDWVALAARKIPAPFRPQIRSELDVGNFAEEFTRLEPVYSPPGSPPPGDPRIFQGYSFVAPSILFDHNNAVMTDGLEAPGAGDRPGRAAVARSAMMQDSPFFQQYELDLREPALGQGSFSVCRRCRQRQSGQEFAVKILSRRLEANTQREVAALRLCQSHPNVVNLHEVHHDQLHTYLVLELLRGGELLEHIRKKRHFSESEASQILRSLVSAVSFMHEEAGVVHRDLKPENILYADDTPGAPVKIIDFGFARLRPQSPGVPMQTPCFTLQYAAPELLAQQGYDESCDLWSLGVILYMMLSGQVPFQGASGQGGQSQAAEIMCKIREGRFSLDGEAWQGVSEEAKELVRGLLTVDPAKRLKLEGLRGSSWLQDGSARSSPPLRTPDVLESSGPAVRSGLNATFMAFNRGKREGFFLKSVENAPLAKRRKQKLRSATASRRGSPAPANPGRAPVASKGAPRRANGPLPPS

[7] = test system: EPHB3; settings: KINOMEscan 353-kinase binding panel, qPCR, at 10 µM, stronger effect = lower value
[8] = target: Serine/threonine-protein kinase NLK (Homo sapiens) (UniProt Q9UBE8); settings: KINOMEscan 353-kinase binding panel, qPCR, at 10 µM, stronger effect = lower value
[9] = test system: HIPK1; settings: KINOMEscan 353-kinase binding panel, qPCR, at 10 µM, stronger effect = lower value
[10] = target: Mitogen-activated protein kinase kinase kinase 10 (Homo sapiens) (UniProt Q02779); settings: KINOMEscan 353-kinase binding panel, qPCR; MLK2; at 10 µM; stronger effect = lower value
Sequence of Mitogen-activated protein kinase kinase kinase 10 (Homo sapiens) (Q02779 whole entry, looked up): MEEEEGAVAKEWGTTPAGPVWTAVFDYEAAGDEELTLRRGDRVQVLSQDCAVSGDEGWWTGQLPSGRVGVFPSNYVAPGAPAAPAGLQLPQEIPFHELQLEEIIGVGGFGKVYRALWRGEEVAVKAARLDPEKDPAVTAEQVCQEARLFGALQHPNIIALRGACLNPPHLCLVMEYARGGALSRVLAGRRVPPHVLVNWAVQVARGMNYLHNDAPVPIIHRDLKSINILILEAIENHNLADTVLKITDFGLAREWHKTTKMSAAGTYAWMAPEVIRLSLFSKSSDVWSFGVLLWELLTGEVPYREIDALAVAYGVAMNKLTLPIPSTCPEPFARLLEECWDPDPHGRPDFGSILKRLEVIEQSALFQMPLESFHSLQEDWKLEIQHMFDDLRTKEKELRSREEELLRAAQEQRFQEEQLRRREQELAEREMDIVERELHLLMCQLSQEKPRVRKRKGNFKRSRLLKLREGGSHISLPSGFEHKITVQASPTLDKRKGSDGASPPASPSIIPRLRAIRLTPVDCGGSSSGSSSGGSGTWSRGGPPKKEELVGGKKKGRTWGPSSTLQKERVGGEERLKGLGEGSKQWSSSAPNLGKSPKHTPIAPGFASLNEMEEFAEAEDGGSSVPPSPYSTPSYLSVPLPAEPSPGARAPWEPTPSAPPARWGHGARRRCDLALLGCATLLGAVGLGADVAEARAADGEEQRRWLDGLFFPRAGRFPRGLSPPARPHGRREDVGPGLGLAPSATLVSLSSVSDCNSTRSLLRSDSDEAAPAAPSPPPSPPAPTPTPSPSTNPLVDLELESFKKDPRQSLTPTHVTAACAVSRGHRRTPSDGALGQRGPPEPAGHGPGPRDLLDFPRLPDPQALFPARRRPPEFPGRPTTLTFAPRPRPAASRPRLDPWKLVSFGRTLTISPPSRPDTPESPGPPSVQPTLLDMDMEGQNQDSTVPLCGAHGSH

[11] = target: Cyclin-dependent kinase 7 (Homo sapiens) (UniProt P50613); settings: KINOMEscan 353-kinase binding panel, qPCR; CDK7; at 10 µM; stronger effect = lower value
[12] = target: Aurora kinase A (Homo sapiens) (UniProt O14965); settings: KINOMEscan 353-kinase binding panel, qPCR; AURKA; at 10 µM; stronger effect = lower value
[13] = target: Epidermal growth factor receptor (Homo sapiens) (UniProt P00533); settings: KINOMEscan 353-kinase binding panel, qPCR, at 10 µM, stronger effect = lower value
Sequence of Epidermal growth factor receptor (Homo sapiens) (P00533 whole entry, looked up): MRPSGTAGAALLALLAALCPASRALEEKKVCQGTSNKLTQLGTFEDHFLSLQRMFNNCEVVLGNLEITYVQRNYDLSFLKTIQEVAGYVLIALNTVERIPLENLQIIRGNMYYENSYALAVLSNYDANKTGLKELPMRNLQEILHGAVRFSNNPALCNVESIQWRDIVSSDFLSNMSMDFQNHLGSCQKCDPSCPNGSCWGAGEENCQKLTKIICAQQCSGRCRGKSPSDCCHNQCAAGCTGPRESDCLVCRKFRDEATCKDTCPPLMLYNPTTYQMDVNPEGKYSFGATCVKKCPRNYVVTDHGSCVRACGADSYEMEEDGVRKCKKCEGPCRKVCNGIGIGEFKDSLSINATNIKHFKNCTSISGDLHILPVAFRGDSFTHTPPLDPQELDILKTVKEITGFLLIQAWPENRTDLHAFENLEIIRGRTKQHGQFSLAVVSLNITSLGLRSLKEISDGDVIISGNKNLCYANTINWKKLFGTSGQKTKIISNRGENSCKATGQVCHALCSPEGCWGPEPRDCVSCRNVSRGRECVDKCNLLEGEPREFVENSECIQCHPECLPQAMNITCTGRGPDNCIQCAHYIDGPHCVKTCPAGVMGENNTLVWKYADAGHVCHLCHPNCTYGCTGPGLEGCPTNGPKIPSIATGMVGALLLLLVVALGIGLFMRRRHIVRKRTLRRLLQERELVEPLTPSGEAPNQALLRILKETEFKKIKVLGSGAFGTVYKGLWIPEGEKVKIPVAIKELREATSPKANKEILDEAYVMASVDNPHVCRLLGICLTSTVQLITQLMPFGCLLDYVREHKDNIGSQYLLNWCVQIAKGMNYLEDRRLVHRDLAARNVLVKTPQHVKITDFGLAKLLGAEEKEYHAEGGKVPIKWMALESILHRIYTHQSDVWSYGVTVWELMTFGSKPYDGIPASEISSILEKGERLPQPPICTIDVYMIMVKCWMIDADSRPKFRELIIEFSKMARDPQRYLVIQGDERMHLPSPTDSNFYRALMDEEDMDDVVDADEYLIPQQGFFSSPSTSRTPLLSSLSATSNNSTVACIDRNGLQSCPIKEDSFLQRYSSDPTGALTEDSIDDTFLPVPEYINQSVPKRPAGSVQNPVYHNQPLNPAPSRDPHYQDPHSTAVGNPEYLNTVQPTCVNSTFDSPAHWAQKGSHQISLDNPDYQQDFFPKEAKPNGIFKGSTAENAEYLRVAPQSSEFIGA

[14] = test system: BMX; settings: KINOMEscan 353-kinase binding panel, qPCR, at 10 µM, stronger effect = lower value
[15] = test system: TTK; settings: KINOMEscan 353-kinase binding panel, qPCR, at 10 µM, stronger effect = lower value
[16] = test system: YANK2; settings: KINOMEscan 353-kinase binding panel, qPCR, at 10 µM, stronger effect = lower value
[17] = test system: RPS6KA2(Kin.Dom.2); settings: KINOMEscan 353-kinase binding panel, qPCR, at 10 µM, stronger effect = lower value
[18] = target: Serine/threonine-protein kinase PLK3 (Homo sapiens) (UniProt Q9H4B4); settings: KINOMEscan 353-kinase binding panel, qPCR, at 10 µM, stronger effect = lower value
[19] = target: Mitogen-activated protein kinase kinase kinase kinase 4 (Homo sapiens) (UniProt O95819); settings: KINOMEscan 353-kinase binding panel, qPCR; MAP4K4; at 10 µM; stronger effect = lower value
[20] = target: Tyrosine-protein kinase FRK (Homo sapiens) (UniProt P42685); settings: KINOMEscan 353-kinase binding panel, qPCR, at 10 µM, stronger effect = lower value
[21] = test system: RIOK3; settings: KINOMEscan 353-kinase binding panel, qPCR, at 10 µM, stronger effect = lower value
[22] = test system: DMPK2; settings: KINOMEscan 353-kinase binding panel, qPCR, at 10 µM, stronger effect = lower value
[23] = target: Mitogen-activated protein kinase kinase kinase 5 (Homo sapiens) (UniProt Q99683); settings: KINOMEscan 353-kinase binding panel, qPCR; MAP3K5; at 10 µM; stronger effect = lower value
[24] = target: Dual specificity protein kinase CLK3 (Homo sapiens) (UniProt P49761); settings: KINOMEscan 353-kinase binding panel, qPCR, at 10 µM, stronger effect = lower value
[25] = target: Calcium/calmodulin-dependent protein kinase type II subunit delta (Homo sapiens) (UniProt Q13557); settings: KINOMEscan 353-kinase binding panel, qPCR; CAMK2D; at 10 µM; stronger effect = lower value
Sequence of Calcium/calmodulin-dependent protein kinase type II subunit delta (Homo sapiens) (Q13557 whole entry, looked up): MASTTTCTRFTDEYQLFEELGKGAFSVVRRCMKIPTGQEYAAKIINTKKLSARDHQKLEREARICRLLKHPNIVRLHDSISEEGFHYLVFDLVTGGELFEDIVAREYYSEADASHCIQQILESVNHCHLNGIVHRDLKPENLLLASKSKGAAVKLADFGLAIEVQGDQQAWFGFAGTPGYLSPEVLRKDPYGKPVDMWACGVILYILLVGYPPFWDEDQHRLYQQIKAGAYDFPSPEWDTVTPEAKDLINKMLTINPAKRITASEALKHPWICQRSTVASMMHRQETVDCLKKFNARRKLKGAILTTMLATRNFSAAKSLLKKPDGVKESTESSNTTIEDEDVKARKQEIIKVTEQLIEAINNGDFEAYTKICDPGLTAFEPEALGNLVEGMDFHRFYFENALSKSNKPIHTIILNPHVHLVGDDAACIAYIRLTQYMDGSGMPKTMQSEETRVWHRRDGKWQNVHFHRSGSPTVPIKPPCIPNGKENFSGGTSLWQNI

[26] = target: BDNF/NT-3 growth factors receptor (Homo sapiens) (UniProt Q16620); settings: KINOMEscan 353-kinase binding panel, qPCR; TRKB; at 10 µM; stronger effect = lower value
[27] = target: cAMP-dependent protein kinase catalytic subunit PRKX (Homo sapiens) (UniProt P51817); settings: KINOMEscan 353-kinase binding panel, qPCR, at 10 µM, stronger effect = lower value
[28] = test system: DLK; settings: KINOMEscan 353-kinase binding panel, qPCR, at 10 µM, stronger effect = lower value
[29] = test system: ERK4; settings: KINOMEscan 353-kinase binding panel, qPCR, at 10 µM, stronger effect = lower value
[30] = test system: EPHA5; settings: KINOMEscan 353-kinase binding panel, qPCR, at 10 µM, stronger effect = lower value
[31] = target: Protein-tyrosine kinase 2-beta (Homo sapiens) (UniProt Q14289); settings: KINOMEscan 353-kinase binding panel, qPCR; PTK2B; at 10 µM; stronger effect = lower value
[32] = test system: ACVR1; settings: KINOMEscan 353-kinase binding panel, qPCR, at 10 µM, stronger effect = lower value

Measured: percent of control binding

Cc1cc2nc(NCCCO)n(CC(=O)c3cc(C(C)(C)C)c(O)c(C(C)(C)C)c3)c2cc1C
inactive: [1] 100% | [2] 100% | [3] 99% | [4] 100% | [5] 98% | [6]; RPS6KA4(Kin.Dom.1) 100% | [6]; RPS6KA4(Kin.Dom.2) 100% | [7] 86% | [8] 100% | [9] 100% | [10] 100% | [11] 64% | [12] 96% | [13]; EGFR(E746-A750del) 100% | [13]; EGFR(G719C) 89% | [13]; EGFR(G719S) 100% | [13]; EGFR(L747-E749del, A750P) 87% | [13]; EGFR(L747-S752del, P753S) 100% | [13]; EGFR(L747-T751del,Sins) 97% | [13]; EGFR(L858R) 77% | [13]; EGFR(L861Q) 59% | [13]; EGFR(S752-I759del) 100% | [13]; EGFR 86% | [14] 84% | [15] 100% | [16] 100% | [17] 100% | [18] 100% | [19] 66% | [20] 89% | [21] 100% | [22] 72% | [23] 100% | [24] 100% | [25] 89% | [26] 100% | [27] 100% | [28] 82% | [29] 100% | [30] 87% | [31] 100% | [32] 89%
